These results are taken from patent publication US20080026076A1 (priority 2003, published 2008).

“Also recorded” adds a separate entry of the source. Marks after values point to notes of the source that are not given here.

The test system of data set [1] is rats with abdominal aortic constriction (AAC) or sham operated. Briefly: Post-sacrifice morphometric measurements (body, heart and organ weights, heart rate) to assess cardiac hypertrophy. The format is in vivo, rat. To be noted: for Heart wt.: quercetin diet, mean ± SEM. From the text: In this procedure the abdominal aorta is constricted to increase the afterload on the heart and produce pressure overload. […] Rats consumed this diet for 7 days.
On the 8th day, 5 rats were surgically modeled for pressure overload by constricting the abdominal aorta to a diameter of 0.63 mm with a Weck hemoclip. The other 5 rats were sham operated (anesthetized and the aorta exposed, but not constricted). […] Another group of 10 rats were placed on a standard diet with no supplement and treated in an identical fashion with 5 surgically modeled for pressure overload and 5 sham operated. […] Two weeks after surgery post-sacrifice morphometric measurements are obtained by measuring total heart weight, left ventricle weight, and calculating heart:body weight and left ventricle:body weight ratios to assess cardiac mass and cardiac hypertrophy.
Post-sacrifice morphometric measurements are obtained by measuring body weight, total heart weight, calculating heart:body weight ratios and heart rate to assess cardiac mass and cardiac hypertrophy.

Another data set concerns PKC α, βI, ε, δ. Put plainly: PKC isoform activation in left ventricle, Western blots. Type of data set: in vivo, rat. To be noted: between all groups (SH, AAC, SHQ, AACQ). (In general: In western blotting, separated proteins are transferred to a membrane and probed.)
The test system of a further data set is ERK1/2. Put plainly: ERK1/2 signaling status in left ventricle, immunoblot. Type of data set: in vivo, rat. The conditions noted are these: AAC rats fed supplemental quercetin. The protocol:
Determination of ERK1/2 and Akt signaling status (FIGS. 4A & 4B). All extraction procedures were performed at 4° C. […] After homogenization, the samples were sonicated twice on ice and centrifuged at 11,000×g for 10 min. at 4° C. Supernatants were recovered and stored at −80° C. for subsequent immunoblotting. Protein concentration of whole heart cell lysate was determined using a Bio-Rad Protein assay (Bio-Rad, Hercules, Calif.) with bovine serum albumin (BSA) as a standard.

Data set [2] concerns spontaneously hypertensive rats. Briefly: Blood pressure in spontaneously hypertensive (SH) rats. Type of data set: in vivo, rat. The method, then:
As described herein, this strain is well documented to have normal blood pressure until about 5-6 weeks of age (Makita and Yasuda, 1990). After about 5-6 weeks, the rats suffer from steadily increasing blood pressure from about 6 weeks of age until peaking at about 12-15 weeks of age.
Blood pressure was measured in SHR and SHRQ rats by lightly anesthetizing the animals using ketamine/xylazine (75/3.75 mg/kg i.p.). Rats were prewarmed for 15 minutes on heated platform and blood pressure was measured using a Visitech BP 2000 blood pressure system. Pressure measurements are reported as the average of between 4 and 8 separate measurements taken over a 70 second period. All rats fully recovered within […] after receiving anesthesia.
Blood pressure blood pressure was measured for each group at 6, 7.5, 9 and 10 weeks. Dietary supplement was initiated at 5 weeks and maintained throughout the experiment.
In a separate experiment using SH rats (dietary supplement was likewise initiated at 5 weeks), blood pressure was measured at 17 weeks.

Data set [3] can be described thus: Plasma quercetin in trial subjects (HPLC). The format is in vivo. To be noted: human, oral. The method, then:
Blood samples were collected after blood pressure was measured. Blood was collected by antecubital venipuncture from fasting subjects into sodium heparin tubes (Becton Dickinson, N.J., USA). Collected blood was immediately stored on ice and centrifuged within 10 minutes at 4° C. for 15 minutes at 2500 g as previously described (36).
Supernatants then were extracted with ethyl acetate and injected into an HPLC Discovery C18 column. The mobile phase was 1% acetic acid (solvent A) and 95% acetonitrile in 1% phosphoric acid (solvent B). The gradient elution was solvent B from 10 to 85% in 20 minutes, holding for 5 minutes before returning back to 10% for conditioning. A visible detector with 365 nm was used.

Another data set relates to 8-isoprostane F2α. Put plainly: Urinary 8-isoprostane F2α, enzyme-linked immunoassay. Type of data set: in vivo, human. The conditions noted are these: for Urinary Isoprostane, Endpoint: end of quercetin phase. The protocol:
During each patient visit whole blood (˜50 μL) was obtained from a digit puncture to determine blood lipids (LDL, VLDL, HDL, total cholesterol) and glucose using a clinical Cholestech LDX blood analyzer (37). Prior to each patient visit, first morning urine was collected, brought to the laboratory, and stored at −80° C. for later analysis of isoprostane concentrations. Urine 8-isoprostane F2α is a measure of lipid peroxidation and can be used to estimate oxidative stress in humans (45-47). Quantification of 8-isoprostane F2α (also known as 8-epi-PGF2α or 8-iso-PGF2α) in urine samples was performed using a competitive enzyme-linked immunoassay kit (Cayman Chemical, Ann Arbor, Mich.) according to the manufacturers instructions.

A short description of data set [4]: Plasma antioxidant reserve (PAR). The format is in vivo, human. To be noted: for PAR, Endpoint: end of quercetin phase. The protocol:
Blood samples were collected after blood pressure was measured. Blood was collected by antecubital venipuncture from fasting subjects into sodium heparin tubes (Becton Dickinson, N.J., USA). Collected blood was immediately stored on ice and centrifuged within 10 minutes at 4° C. for 15 minutes at 2500 g as previously described (36). […] Ex-vivo amplification of isoprostanes was accomplished by introducing a source of free radicals (3-morpholinosydnonimine, SIN-1) into the blood plasma to induce oxidation of lipoproteins (39). Uric acid, a major water soluble antioxidant present in plasma, was removed using uricase prior to introduction of SIN-1 so that any protection provided by other antioxidants could be measured. Therefore, PAR measures the non-urate antioxidant capacity, or antioxidant power, of blood.

Data set [5] is described as follows: Trial: fasting blood lipids and glucose (Cholestech LDX). Type of data set: in vivo, human. The conditions noted are these: after quercetin supplementation compared to placebo (data not shown). The method, then:
During each patient visit whole blood (˜50 μL) was obtained from a digit puncture to determine blood lipids (LDL, VLDL, HDL, total cholesterol) and glucose using a clinical Cholestech LDX blood analyzer (37). Prior to each patient visit, first morning urine was collected, brought to the laboratory, and stored at −80° C. for later analysis of isoprostane concentrations.

The test system of another data set is normotensive individuals. The conditions noted are these: 1000 mg/day of quercetin for one month (Conquer et al.); cited from earlier work.
The subject of data set [6] is mice with surgically induced abdominal aortic constriction. To be noted: oral, 5 day, 120 mg/kg/day (Wang et al., 1999); cited from earlier work.
Where [7] appears, read: 1.5 g/kg chow quercetin from 5 weeks of age, measured at 6 to 10 weeks, vs control diet.
Setting [8] is: both groups of hypertensive subjects.

Description for PKC α, βI, ε, δ: Following the experimental period, rats were sacrificed, left ventricles were homogenized, and cytosolic & membrane cell fractions isolated using differential centrifugation as previously described (Jalili et al., 1999). Immunobloting using standard protocols was used to assess PKC distribution. […] Increased abundance in membrane bound fractions is indicative of PKC activation.
Western blotting, transfer and densitometry: Electrophoresis and transfer of proteins to PVDF membranes were done as previously described (18, 19). Primary antibody directed against PKC α, βI, βII, δ, and ε (Santa Cruz Biotechnology, Santa Cruz, Calif.) were incubated overnight at 4° C. in a 1:1000 dilution. Antibodies directed against phospho ERK 1/2, phospho JNK, ph c-Raf (Cell Signal Technology, Beverly, Mass.), and phospho PKC P (Santa Cruz Biotechnology, Santa Cruz, Calif.), were incubated at a 1:1000 dilution for 48 h at 4° C. in 5% BSA Tris buffer with 0.05% Tween-20. Secondary antibody conjugated to horseradish peroxidase (goat anti rabbit, (Cell Signal Technology, Beverly, Mass.)) was incubated for 1 h at 1:10,000 dilution. Signals were visualized by enhanced chemiluminescence (Cell Signal Technology, Beverly, Mass.). Relative band density of immunoblots on film were measured with a scanner using NIH 1.63 image software (National Institutes of Health, Rockville, Md.).

Turning to `O=c1c(O)c(-c2ccc(O)c(O)c2)oc2cc(O)cc(O)c12` [quercetin, 3,5,7,3′,4′-pentahydroxyflavone], the Heart wt. is recorded as 1.18 ± 0.03^b g in data set [1] (AAC + Q (n = 9)) and 1.01 ± 0.03^a g in data set [1] (Sham + Q (n = 10)). The cardiac hypertrophy result in data set [1] (AAC-Q rats compared with AAC and sham rats, two weeks after surgery) is “lower level of cardiac hypertrophy; also recorded: levels of hypertrophy in between S and AAC rats”; in data set [6], “prevented cardiac hypertrophy”. Further, the “Activation of PKC α, βI, ε, or δ isoforms” value in the data set on PKC α, βI, ε, δ is “no significant differences”. Also, the “activation of ERK1/2” value in the data set on ERK1/2 is “reduced”. In addition, the onset of hypertension result in data set [2] (1.5 g quercetin/kg diet from 5 weeks of age) is “delayed the onset of hypertension”. In data set [2] (setting [7]), the diastolic pressure result was “did not show a statistically significant changed”. Besides, in data set [2] (setting [7]), the mean arterial pressure result is on record as “did not show a statistically significant changed”. Also, in data set [2] (setting [7]), the systolic blood pressure result was “decreased systolic blood pressure”. In addition, the “blood pressure at 17 weeks” value in data set [2] (separate experiment, supplement from 5 weeks, control vs quercetin treated) is recorded as “No significant difference in blood pressure”. In [3], this molecule gave a concentration at 1 week after end of supplementation of 190 ± 9 ng/mL. This molecule also returned a concentration at 4 weeks in data set [3] (730 mg/day for 4 weeks, fasted, 235±35 after placebo) of 480 ± 64 ng/mL. Besides, the “fasting urinary 8-isoprostane F2α concentration, quercetin supplementation vs. placebo” value in the data set on 8-isoprostane F2α (setting [8]) is “not altered”. Moreover, the “Urinary Isoprostane, Endpoint” value in the data set with 8-isoprostane F2α (prehypertensive (n=10), baseline 518 ± 55) is given as 520 ± 75 ng/g creatine; in the data set on 8-isoprostane F2α (stage 1 hypertensive (n=8), baseline 822 ± 249) it was 549 ± 59 ng/g creatine. In [4] (setting [8]), the “fasting plasma PAR, quercetin supplementation vs. placebo” value is on record as “not altered”. Moreover, the “PAR, Endpoint” value in data set [4] (prehypertensive (n=10), baseline 279 ± 48) was 266 ± 32 pg/mL; in data set [4] (stage 1 hypertensive (n=8), baseline 258 ± 55) it was 281 ± 74 pg/mL. Besides, in [5], the “Fasting blood glucose levels” value is recorded as “unchanged”. The blood pressure result in the data set with normotensive individuals was “no changes in blood pressure”. For the same molecule, in the data set on normotensive individuals, the plasma quercetin concentrations is 427 ± 89 ng/mL.
